{"source": "patent US9115340B2", "about": "“Microfluidic continuous flow device” (AGENCY FOR SCIENCE TECHNOLOGY & RESEARCH, priority 2008, dated 2015)", "key": {"primary rat hepatocytes [1]": {"system": "primary rat hepatocytes", "assay": "Albumin secretion of primary rat hepatocytes cultured in the microfluidic channel (rat albumin ELISA)", "format": "cell-based", "description": "200 pg/ml of TGF-β1 was supplemented into cultivation medium (▪). In another set of experiment, TGF-β1 was pre-loaded into gelatin microspheres and was then controlled released to the hepatocytes at a concentration of 217.5 pg/ml ( ?; control release). In the control experiment, there is no TGF-β1 supplemented in cultivation medium (□).\nAlbumin production was quantified with a rat albumin ELISA quantification kit (Bethyl Laboratories Inc, USA) in the collected cultivation medium everyday. In the presence of TGF-β1, the level of albumin secretion is enhanced. From day 5 onwards, when TGF-β1 is controlled released to the hepatocytes, the level of albumin secretion can be well-sustained."}, "primary rat hepatocytes [2]": {"system": "primary rat hepatocytes", "assay": "UGT activity: 4-MUG production of primary rat hepatocytes in the microfluidic channel (CE-LIF)", "format": "cell-based", "details": "from day 3 onwards; TGF-β1 controlled released from gelatin microspheres at 217.5 pg/ml; compared to medium-supplemented and control groups", "procedure": "The enzyme has the ability to metabolize the substrate 4-methylumbelliferone (MU) into 4-methylumbelliferone-glucuronide (MUG). Thus, the enzyme activity is indicated by the amount of 4-MUG produced by the cells.\nCapillary electrophoresis (CE) with fluorimetric detection was used for the simultaneous detection of 4-MU and 4-MUG. Separation is carried out on an untreated fused silica capillary with fluorimetric detection using an excitation wavelength of 320 nm with a 375 nm cut off emission filter. […]\nSimilar to the UDP-glucuronosyltransferase (UGT) assay described above, UDP-glucuronosyltransferase (UGT) activity of hepatocytes cultured in the compartment of a channel of a microfluidic continuous flow device was determined by infusing 100 μM of 4-methylumbelliferone (4-MU) (Sigma, Singapore) for 4 h at 200 μl/h into the channel. The perfusate (800 μl) was collected and the metabolic product, 4-methylumbelliferone-glucuronide (4-MUG), was analyzed using capillary electrophoresis with laser induced fluorescence (CE-LIF) (Toh, Y. C. et al., 2008, Analyst, vol. 132, no. 3, p. 326) detection (Prince Technologies B.V., Netherlands) at an excitation wavelength of 325 nm."}}}
{"substance": "TGF-β1: growth factor supplemented into cultivation medium or pre-loaded into gelatin microspheres and controlled released to hepatocytes", "values": [{"measurement": "albumin secretion", "setting": "primary rat hepatocytes [1]; from day 5 onwards, 200 pg/ml TGF-β1 supplemented into cultivation medium", "result": "decreases"}, {"measurement": "level of albumin secretion", "setting": "primary rat hepatocytes [1]; from day 5 onwards, TGF-β1 controlled released from gelatin microspheres at 217.5 pg/ml", "result": "well-sustained"}, {"measurement": "level of albumin secretion", "setting": "primary rat hepatocytes [1]; in the presence of TGF-β1 (200 pg/ml in medium or 217.5 pg/ml controlled release) versus no TGF-β1", "result": "enhanced"}, {"measurement": "level of 4-MUG production", "setting": "primary rat hepatocytes [2]", "result": "greatly enhanced"}]}
